Drawing on ChEMBL document CHEMBL1212814, “Polyamines in drug discovery: from the universal template approach to the multitarget-directed ligand design strategy” (J Med Chem, 2010), this text covers IC50 for two compounds.

A short description of the assay: Inhibition of amyloid beta (1-40) aggregation by thioflavin T based fluorometric assay.

Usually IC50 stands for the point on the concentration scale where inhibition reaches its midpoint. A low value points to greater potency. Compound `CN(C)[C@@H]1C(O)=C(C(N)=O)C(=O)[C@@]2(O)C(O)=C3C(=O)c4c(O)cccc4[C@@](C)(O)[C@H]3C[C@@H]12` [TETRACYCLINE] displayed an IC50 of 60.3 µM. Then `CCN(CCCCCCNC1=CC(=O)C(NCCCCCCN(CC)Cc2ccccc2OC)=CC1=O)Cc1ccccc1OC` [MEMOQUIN], with 5.93 µM.
